Key:
[1] = molecular target: Recombinant heterodimeric HCV NS3/NS4A protease (strain 1a) (Hepatitis C virus genotype 1a, UniProt P27958); experiment: biochemical; parameters: species or system HCV (strain 1a)
[2] = molecular target: T1, HCV serine protease (subtype 1b, 1bNS4A21-32GS-GS NS 3-81 I17K) in HeLa/Huh7 cells (Hepatitis C virus genotype 1b, UniProt P26663, I1043K); experiment: Cell bioassay: HCV serine protease cell-based trans-cleavage assay; parameters: species or system Hepatitis C virus (subtype 1b)
T1 construct: 1bNS4A21-32GS-GS NS 3-81 I17K; expressed in transfected cells; host or cells: HeLa/Huh7 cells

Row | SMILES | Ki [1] | EC50 [2]
1 | CCCC(NC(=O)[C@@H]1Cc2cccc(c2)Oc2ccc(cc2)CCC(=O)N[C@@H](C2CCCCC2)C(=O)O1)C(=O)C(=O)NCC(=O)N[C@H](C(=O)N(C)C)c1ccccc1 (stereo partly shown) [Example 35] | 1.1 to 100 µM | 20 µM
2 | CCCC(NC(=O)C1Cc2cccc(c2)OCCCCCCC(=O)NC(C2CCCCC2)C(=O)O1)C(=O)C(=O)NCC(=O)N[C@H](C(=O)N(C)C)c1ccccc1 (stereo partly shown) [Example 36] | 1.1 to 100 µM | 9 µM
